Like-named read-outs stand apart in the source and are kept apart here. Where a SMILES comes first, the peptide text is derived from it. Bridges are numbered along the chain shown (N, C = ends). [ ]: non-standard residue; d: D form. The star is where a group is joined. Acetyl(4-DOTA-piperazinyl) = O=C(O)CN1CCN(CC(=O)O)CCN(CC(=O)N2CCN(CC(=O)*)CC2)CCN(CC(=O)O)CC1; DOTA = O=C(O)CN1CCN(CC(=O)O)CCN(CC(=O)*)CCN(CC(=O)O)CC1; Pro(cis-4-F) = O=C(O)[C@@H]1C[C@H](F)CN1; Phe(4-NH2) = Nc1ccc(C[C@H](N)C(=O)O)cc1; Dopa = N[C@@H](Cc1ccc(O)c(O)c1)C(=O)O; NMeR = CN[C@@H](CCCNC(=N)N)C(=O)O; Hyp = O=C(O)[C@@H]1C[C@@H](O)CN1; Pentanoyl(4-Me) = CC(C)CCC(=O)*; Cha = N[C@@H](CC1CCCCC1)C(=O)O; Cit = NC(=O)NCCC[C@H](N)C(=O)O; Butoxycarbonyl = CCCCOC(=O)*; NMeNle = CCCC[C@H](NC)C(=O)O; Nle = CCCC[C@H](N)C(=O)O; Octanoyl = CCCCCCCC(=O)*; Nva = CCC[C@H](N)C(=O)O; Deg = CCC(N)(CC)C(=O)O; Pentanoyl = CCCCC(=O)*
How the values were obtained:
[1] = target: T1, uPAR-expressing HEC-265 human endometrial adenocarcinoma cells (Homo sapiens, UniProt Q03405); test: Competitive FACS binding assay; conditions: pIC50 category of FACS binding
T1 construct: Cell surface uPAR-expressing HEC-265 human endometrial adenocarcinoma cells; host or cells: HEC-265
Method in brief: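 HEC-265 cells incubated 1 h at 4 °C with 10 nM biotinylated uPAR peptide tracer plus increasing test compound, then stained with APC-streptavidin on ice. Median APC fluorescence by flow cytometry; 4PL fit gives pIC50.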

[2] = target: T2, human uPAR (uPAR-Fc) (Homo sapiens, UniProt Q03405); test: Surface plasmon resonance (SPR) assay, single cycle kinetics; type: binding; conditions: pKD category for uPAR SPR activity assay, uPAR-Fc on Protein A-Chip, 25°C, read-out: pKD CAT (converted)
T2 construct: comprising amino acids Leu23-Arg303 according to UniProt entry Q03405.1; purchased R&D Systems 10378-UK-100
Method in brief: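 uPAR-Fc (Leu23-Arg303 extracellular domains, human IgG1 Fc) captured on Protein A chip to ~2000 RU; single-cycle kinetics at 25°C in HEPES running buffer pH 7.4 with 0.1% DMSO. KD from double-referenced sensorgrams fitted to 1:1 Langmuir model, reported as pKD.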

T1 sequence (Q03405 23-335): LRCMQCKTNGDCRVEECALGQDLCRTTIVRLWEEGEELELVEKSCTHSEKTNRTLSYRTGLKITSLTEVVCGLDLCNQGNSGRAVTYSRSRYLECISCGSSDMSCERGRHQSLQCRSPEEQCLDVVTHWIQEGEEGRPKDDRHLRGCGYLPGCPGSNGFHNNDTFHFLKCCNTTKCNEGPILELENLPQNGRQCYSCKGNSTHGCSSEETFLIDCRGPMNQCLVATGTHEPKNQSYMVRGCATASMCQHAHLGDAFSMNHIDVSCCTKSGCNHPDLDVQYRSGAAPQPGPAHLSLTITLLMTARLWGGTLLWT
T2 sequence (Q03405 23-303): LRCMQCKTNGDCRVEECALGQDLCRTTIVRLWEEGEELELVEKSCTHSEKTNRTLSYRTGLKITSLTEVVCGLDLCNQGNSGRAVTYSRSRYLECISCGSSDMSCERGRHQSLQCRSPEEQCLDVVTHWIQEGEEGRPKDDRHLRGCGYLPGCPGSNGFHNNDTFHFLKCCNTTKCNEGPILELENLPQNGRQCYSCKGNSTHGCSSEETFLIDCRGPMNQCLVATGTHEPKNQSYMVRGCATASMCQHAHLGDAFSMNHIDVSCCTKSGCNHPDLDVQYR

Row | SMILES | IC50 [1] [nM] | Kd ([2]; single cycle kinetics) [nM] | Kd [2] [nM]
1 | CCCCC(=O)N[C@H]1CSSC[C@@H](C(N)=O)NC(=O)[C@H](CCC)NC(=O)[C@H]([C@@H](C)CC)NC(=O)[C@@H]2C[C@@H](O)CN2C(=O)[C@@H]2CCCN2C(=O)[C@H](Cc2ccccc2)NC(=O)[C@H](CCCCN)NC(=O)[C@H](CCC(N)=O)NC(=O)[C@H](CCCNC(=N)N)NC1=O [UPAR-442, Pent-[Cys-Arg-Gln-Lys-Phe-Pro-Hyp-Ile-Nva-Cys]-NH2] (Pentanoyl-CRQKFP[Hyp]I[Nva]C-NH2; disulfide 1-10) | 39.8 to 100 | 10 to 100 | 
2 | CCCCOC(=O)N[C@H]1CSSC[C@@H](C(N)=O)NC(=O)[C@H](CCC)NC(=O)[C@H]([C@@H](C)CC)NC(=O)[C@@H]2C[C@@H](O)CN2C(=O)[C@@H]2C[C@H](F)CN2C(=O)[C@H](Cc2ccccc2)NC(=O)[C@H](Cc2ccc(O)c(O)c2)NC(=O)[C@H](CCCCNC(=O)CN2CCN(C(=O)CN3CCN(CC(=O)O)CCN(CC(=O)O)CCN(CC(=O)O)CC3)CC2)NC(=O)[C@H]([C@@H](C)O)NC1=O [UPAR-199, Butoc-[Cys-Thr-Lys(DOTA-PPAc)-Dopa-Phe-4Cfp-Hyp-Ile-Nva-Cys]-NH2] (Butoxycarbonyl-CTK(Acetyl(4-DOTA-piperazinyl))[Dopa]F[Pro(cis-4-F)][Hyp]I[Nva]C-NH2; disulfide 1-10) | ≤ 10 |  | < 1.58
3 | CC[C@H](C)[C@@H]1NC(=O)[C@@H](C)NC(=O)[C@@H]2CCCN2C(=O)[C@H](Cc2ccccc2)NC(=O)[C@H](Cc2ccc(O)cc2)NC(=O)[C@H](CCC(N)=O)NC(=O)[C@H](CCCNC(N)=O)NC(=O)[C@@H](NC(=O)CNC(C)=O)CSSC[C@@H](C(N)=O)NC(=O)[C@H](CC(C)C)NC1=O [UPAR-334, Ac-Gly-[Cys-Cit-Gln-Tyr-Phe-Pro-ala-Ile-Leu-Cys]-NH2] (Ac-GC[Cit]QYFP[dA]ILC-NH2; disulfide 2-11) | ≥ 126 |  | > 100
4 | CCCC[C@@H]1NC(=O)[C@H](CCCNC(=N)N)NC(=O)[C@H](NC(=O)[C@H](CC(C)C)NC(=O)[C@H](CC(=O)O)NC(C)=O)CSSC[C@@H](C(N)=O)NC(=O)[C@H](CC(C)C)NC(=O)[C@H]([C@@H](C)CC)NC(=O)[C@H](C)NC(=O)[C@@H]2CCCN2C(=O)[C@H](Cc2ccccc2)NC(=O)[C@H](Cc2ccc(O)cc2)NC1=O [UPAR-412, Ac-Asp-Leu-[cys-Arg-Nle-Tyr-Phe-Pro-Ala-Ile-Leu-Cys]-NH2] (Ac-DL[dC]R[Nle]YFPAILC-NH2; disulfide 3-12) | ≥ 126 | > 100 | 
5 | CCCCC(=O)N[C@H]1CSSC[C@@H](C(N)=O)NC(=O)[C@H](CCC)NC(=O)C(CC)(CC)NC(=O)[C@@H]2C[C@@H](O)CN2C(=O)[C@@H]2CCCN2C(=O)[C@H](Cc2ccccc2)NC(=O)[C@H](Cc2ccc(O)cc2)NC(=O)[C@H](CCC(N)=O)NC(=O)[C@H](CCCNC(=N)N)NC1=O [UPAR-179, Pent-[Cys-Arg-Gln-Tyr-Phe-Pro-Hyp-Deg-Nva-Cys]-NH2] (Pentanoyl-CRQYFP[Hyp][Deg][Nva]C-NH2; disulfide 1-10) | ≥ 126 |  | > 100
6 | CCCCC(=O)N[C@H]1CSSC[C@@H](C(=O)NCC)NC(=O)[C@H](CCC)NC(=O)[C@H]([C@@H](C)CC)NC(=O)[C@@H]2C[C@@H](O)CN2C(=O)[C@@H]2CCCN2C(=O)[C@H](Cc2ccccc2)NC(=O)[C@H](Cc2ccc(O)cc2)NC(=O)[C@H](CCC(N)=O)NC(=O)[C@H](CCCNC(N)=O)NC1=O [UPAR-146, Pent-[Cys-Cit-Gln-Tyr-Phe-Pro-Hyp-Ile-Nva-Cys]-NHEt] (Pentanoyl-C[Cit]QYFP[Hyp]I[Nva]C-NHEt; disulfide 1-10) | 12.6 to 31.6 |  | 1.58 to 10
7 | CC[C@H](C)[C@@H]1NC(=O)[C@@H](C)NC(=O)[C@@H]2CCCN2C(=O)[C@H](Cc2ccccc2)NC(=O)[C@H](Cc2ccc(O)cc2)NC(=O)[C@H](CCC(N)=O)NC(=O)[C@H](CCCNC(=N)N)N(C)C(=O)[C@@H](NC(=O)CCC(C)C)CSSC[C@@H](C(N)=O)NC(=O)[C@H](CC(C)C)NC1=O [UPAR-287, iHex-[Cys-Nmr-Gln-Tyr-Phe-Pro-ala-Ile-Leu-Cys]-NH2] ({Pentanoyl(4-Me)}-C[NMeR]QYFP[dA]ILC-NH2; disulfide 1-10) | ≥ 126 |  | > 100
8 | CC[C@H](C)[C@@H]1NC(=O)[C@H](C)NC(=O)[C@@H]2CCCN2C(=O)[C@H](Cc2ccccc2)NC(=O)[C@H](Cc2ccc(O)cc2)NC(=O)[C@H](CCC(N)=O)NC(=O)[C@H](CCCNC(=N)N)NC(=O)[C@@H](NC(=O)[C@H](CC(C)C)NC(C)=O)CSSC[C@@H](C(N)=O)NC(=O)[C@H](CC(C)C)NC1=O [UPAR-381, Ac-Leu-[Cys-Arg-Gln-Tyr-Phe-Pro-Ala-Ile-Leu-Cys]-NH2] (Ac-LCRQYFPAILC-NH2; disulfide 2-11) | ≤ 10 | < 1.58 | 

Continued, values first:

Row | IC50 [1] [nM] | Kd ([2]; single cycle kinetics) [nM] | Kd [2] [nM] | SMILES
9 | ≤ 10 | 1.58 to 10 |  | CC[C@H](C)[C@@H]1NC(=O)[C@@H](CCCNC(=N)N)NC(=O)[C@@H]2CCCN2C(=O)[C@H](Cc2ccccc2)NC(=O)[C@H](Cc2ccc(O)cc2)NC(=O)[C@H](CCC(N)=O)NC(=O)[C@H](CCCNC(N)=O)NC(=O)[C@@H](NC(=O)CCC(C)C)CSSC[C@@H](C(N)=O)NC(=O)[C@H](CC(C)C)NC1=O [UPAR-357, iHex-[Cys-Cit-Gln-Tyr-Phe-Pro-arg-Ile-Leu-Cys]-NH2] ({Pentanoyl(4-Me)}-C[Cit]QYFP[dR]ILC-NH2; disulfide 1-10)
10 | ≤ 10 |  | < 1.58 | CC[C@H](C)[C@@H]1NC(=O)[C@@H]2C[C@@H](O)CN2C(=O)[C@@H]2CCCN2C(=O)[C@H](Cc2ccccc2)NC(=O)[C@H](Cc2ccc(O)cc2)NC(=O)[C@H](CCCCNC(=O)CN2CCN(CC(=O)O)CCN(CC(=O)O)CCN(CC(=O)O)CC2)NC(=O)[C@H](CCCNC(N)=O)NC(=O)[C@@H](NC(=O)CCC(C)C)CSSC[C@@H](C(N)=O)NC(=O)[C@H](CC(C)C)NC1=O [UPAR-240, iHex-[Cys-Cit-Lys(DOTA)-Tyr-Phe-Pro-Hyp-Ile-Leu-Cys]-NH2] ({Pentanoyl(4-Me)}-C[Cit]K(DOTA)YFP[Hyp]ILC-NH2; disulfide 1-10)
11 | ≤ 10 | < 1.58 |  | CCCC[C@H](NC)C(=O)N[C@H]1CSSC[C@@H](C(N)=O)NC(=O)[C@H](CCC)NC(=O)[C@H]([C@@H](C)CC)NC(=O)[C@@H]2C[C@@H](O)CN2C(=O)[C@@H]2C[C@H](F)CN2C(=O)[C@H](Cc2ccccc2)NC(=O)[C@H](Cc2ccc(O)cc2)NC(=O)[C@H](CCCCNC(=O)CN2CCN(CC(=O)O)CCN(CC(=O)O)CCN(CC(=O)O)CC2)NC(=O)[C@H]([C@@H](C)O)NC1=O [UPAR-428, H-Nmb-[Cys-Thr-Lys(DOTA)-Tyr-Phe-4Cfp-Hyp-Ile-Nva-Cys]-NH2] (H-[NMeNle]CTK(DOTA)YF[Pro(cis-4-F)][Hyp]I[Nva]C-NH2; disulfide 2-11)
12 | ≤ 10 |  | < 1.58 | CCCCCCCC(=O)N[C@H]1CSSC[C@@H](C(N)=O)NC(=O)[C@H](CCC)NC(=O)[C@H]([C@@H](C)CC)NC(=O)[C@@H]2C[C@@H](O)CN2C(=O)[C@@H]2CCCN2C(=O)[C@H](Cc2ccccc2)NC(=O)[C@H](Cc2ccc(O)cc2)NC(=O)[C@H](CCC(N)=O)NC(=O)[C@H](CCCNC(=N)N)NC1=O [UPAR-193, Oct-[Cys-Arg-Gln-Tyr-Phe-Pro-Hyp-Ile-Nva-Cys]-NH2] (Octanoyl-CRQYFP[Hyp]I[Nva]C-NH2; disulfide 1-10)
13 | ≤ 10 |  | < 1.58 | CCCCC(=O)N[C@H]1CSSC[C@@H](C(N)=O)NC(=O)[C@H](CCC)NC(=O)[C@H]([C@@H](C)CC)NC(=O)[C@@H]2C[C@@H](O)CN2C(=O)[C@@H]2CCCN2C(=O)[C@H](Cc2ccccc2)NC(=O)[C@H](Cc2ccc(O)cc2)NC(=O)[C@H](CCC(N)=O)NC(=O)CNC1=O [UPAR-236, Pent-[Cys-Gly-Gln-Tyr-Phe-Pro-Hyp-Ile-Nva-Cys]-NH2] (Pentanoyl-CGQYFP[Hyp]I[Nva]C-NH2; disulfide 1-10)
14 | ≤ 10 | < 1.58 |  | CCCCC(=O)N[C@H]1CSSC[C@@H](C(N)=O)NC(=O)[C@H](CCC)NC(=O)[C@H]([C@@H](C)CC)NC(=O)[C@@H]2C[C@@H](O)CN2C(=O)[C@@H]2CCCN2C(=O)[C@H](Cc2ccccc2)NC(=O)[C@H](CC2CCCCC2)NC(=O)[C@H](CCC(N)=O)NC(=O)[C@H](CCCNC(=N)N)NC1=O [UPAR-373, Pent-[Cys-Arg-Gln-Cha-Phe-Pro-Hyp-Ile-Nva-Cys]-NH2] (Pentanoyl-CRQ[Cha]FP[Hyp]I[Nva]C-NH2; disulfide 1-10)
15 | ≤ 10 |  | < 1.58 | CCCCC(=O)N[C@H]1CSSC[C@@H](C(N)=O)NC(=O)[C@H](CCC)NC(=O)[C@H]([C@@H](C)CC)NC(=O)[C@@H]2C[C@@H](O)CN2C(=O)[C@@H]2CCCN2C(=O)[C@H](Cc2ccccc2)NC(=O)[C@H](Cc2ccc(N)cc2)NC(=O)[C@H](CCCCNC(=O)CN2CCN(CC(=O)O)CCN(CC(=O)O)CCN(CC(=O)O)CC2)NC(=O)[C@H](CCCNC(N)=O)NC1=O [UPAR-320, Pent-[Cys-Cit-Lys(DOTA)-Aph-Phe-Pro-Hyp-Ile-Nva-Cys]-NH2] (Pentanoyl-C[Cit]K(DOTA)[Phe(4-NH2)]FP[Hyp]I[Nva]C-NH2; disulfide 1-10)

— patent EP4610269A1, “UROKINASE PLASMINOGEN ACTIVATOR SURFACE RECEPTOR (UPAR) LIGANDS FOR DIAGNOSTIC OR THERAPEUTIC USE” (3B Pharmaceuticals GmbH, priority 2024, dated 2025)
